Read-outs that look alike come from different tables or passages of the source.
Legend:
Test in all cases: Kinase selectivity, P33-radiolabeled assay
Type in all cases: biochemical
Conditions in all cases: 10 μM ATP
TESK1 = target: T1, TESK1 (Homo sapiens, UniProt Q15569)
T1 construct: purchased Reaction Biology Corp
Summary of the method: (§1)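 Reactions contained 10 μM ATP and 10 μM test compound, each run in duplicate. Kinase activity is expressed as a percentage of DMSO-treated controls.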

TXK = target: T2, TXK (Homo sapiens, UniProt P42681)
T2 construct: purchased Reaction Biology Corp
T2 sequence (P42681 1-527): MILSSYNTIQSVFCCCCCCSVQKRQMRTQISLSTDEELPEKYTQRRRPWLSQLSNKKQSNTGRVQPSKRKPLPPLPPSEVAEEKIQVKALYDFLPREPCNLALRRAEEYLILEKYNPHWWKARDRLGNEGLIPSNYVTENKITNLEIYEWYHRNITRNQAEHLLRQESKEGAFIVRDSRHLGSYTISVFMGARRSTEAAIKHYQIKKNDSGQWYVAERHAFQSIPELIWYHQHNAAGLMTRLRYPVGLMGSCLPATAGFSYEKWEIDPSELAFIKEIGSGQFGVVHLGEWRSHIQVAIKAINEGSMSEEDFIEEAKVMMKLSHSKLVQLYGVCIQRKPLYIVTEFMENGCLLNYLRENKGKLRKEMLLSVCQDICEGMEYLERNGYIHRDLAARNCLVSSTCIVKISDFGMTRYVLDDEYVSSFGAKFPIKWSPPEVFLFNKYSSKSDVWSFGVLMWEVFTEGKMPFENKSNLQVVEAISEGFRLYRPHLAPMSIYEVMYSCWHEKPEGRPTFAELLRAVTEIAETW
Summary of the method: as §1

NIK/MAP3K14 = target: T3, NIK/MAP3K14 (Homo sapiens, UniProt Q99558)
T3 construct: purchased Reaction Biology Corp
T3 sequence (Q99558 whole entry): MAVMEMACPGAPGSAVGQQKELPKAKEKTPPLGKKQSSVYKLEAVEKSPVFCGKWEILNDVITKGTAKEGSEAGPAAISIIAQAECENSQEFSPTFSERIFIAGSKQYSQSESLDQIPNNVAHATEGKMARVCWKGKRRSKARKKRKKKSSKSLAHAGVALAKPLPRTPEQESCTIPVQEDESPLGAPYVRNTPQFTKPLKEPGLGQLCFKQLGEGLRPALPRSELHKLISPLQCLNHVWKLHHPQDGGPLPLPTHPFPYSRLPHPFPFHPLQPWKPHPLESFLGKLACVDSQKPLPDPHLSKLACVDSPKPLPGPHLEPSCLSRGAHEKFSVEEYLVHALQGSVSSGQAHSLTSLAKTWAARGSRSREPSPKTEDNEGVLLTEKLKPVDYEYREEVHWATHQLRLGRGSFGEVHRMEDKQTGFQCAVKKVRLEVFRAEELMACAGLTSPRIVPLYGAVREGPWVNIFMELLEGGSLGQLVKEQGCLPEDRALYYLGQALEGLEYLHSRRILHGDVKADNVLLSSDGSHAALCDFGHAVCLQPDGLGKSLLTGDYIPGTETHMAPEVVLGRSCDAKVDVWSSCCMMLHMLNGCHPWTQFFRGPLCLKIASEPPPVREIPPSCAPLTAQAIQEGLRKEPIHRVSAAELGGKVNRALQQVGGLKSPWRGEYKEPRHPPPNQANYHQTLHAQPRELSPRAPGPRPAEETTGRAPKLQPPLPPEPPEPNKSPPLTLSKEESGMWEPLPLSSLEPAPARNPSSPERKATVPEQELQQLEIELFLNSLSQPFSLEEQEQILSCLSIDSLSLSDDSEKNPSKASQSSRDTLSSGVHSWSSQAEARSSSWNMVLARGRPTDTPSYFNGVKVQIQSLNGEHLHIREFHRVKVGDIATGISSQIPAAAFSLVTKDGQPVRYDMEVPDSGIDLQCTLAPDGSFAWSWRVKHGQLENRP
Summary of the method: as §1

LCK2/ICK = target: T4, LCK2/ICK (Homo sapiens, UniProt Q9UPZ9)
T4 construct: purchased Reaction Biology Corp
T4 sequence (Q9UPZ9 1-632): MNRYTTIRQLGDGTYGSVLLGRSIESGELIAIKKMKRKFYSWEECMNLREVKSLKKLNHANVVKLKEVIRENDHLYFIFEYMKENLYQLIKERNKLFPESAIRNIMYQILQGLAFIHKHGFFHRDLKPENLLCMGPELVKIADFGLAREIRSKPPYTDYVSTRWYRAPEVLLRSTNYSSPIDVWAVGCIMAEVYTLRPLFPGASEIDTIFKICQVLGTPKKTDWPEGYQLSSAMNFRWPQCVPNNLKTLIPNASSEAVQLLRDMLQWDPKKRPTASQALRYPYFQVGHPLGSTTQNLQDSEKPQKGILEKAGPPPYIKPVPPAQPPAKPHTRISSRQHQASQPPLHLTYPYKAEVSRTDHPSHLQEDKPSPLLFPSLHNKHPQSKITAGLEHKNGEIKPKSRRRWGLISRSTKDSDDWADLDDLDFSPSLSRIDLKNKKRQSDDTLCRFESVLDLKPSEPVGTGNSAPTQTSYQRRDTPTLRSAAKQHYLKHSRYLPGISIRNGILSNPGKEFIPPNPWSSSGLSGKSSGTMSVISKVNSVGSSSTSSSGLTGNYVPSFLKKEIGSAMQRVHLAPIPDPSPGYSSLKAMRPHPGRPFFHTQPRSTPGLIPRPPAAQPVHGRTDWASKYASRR
Summary of the method: as §1

TTBK1 = target: T5, TTBK1 (Homo sapiens, UniProt Q5TCY1)
T5 construct: purchased Reaction Biology Corp
T5 sequence (Q5TCY1 whole entry): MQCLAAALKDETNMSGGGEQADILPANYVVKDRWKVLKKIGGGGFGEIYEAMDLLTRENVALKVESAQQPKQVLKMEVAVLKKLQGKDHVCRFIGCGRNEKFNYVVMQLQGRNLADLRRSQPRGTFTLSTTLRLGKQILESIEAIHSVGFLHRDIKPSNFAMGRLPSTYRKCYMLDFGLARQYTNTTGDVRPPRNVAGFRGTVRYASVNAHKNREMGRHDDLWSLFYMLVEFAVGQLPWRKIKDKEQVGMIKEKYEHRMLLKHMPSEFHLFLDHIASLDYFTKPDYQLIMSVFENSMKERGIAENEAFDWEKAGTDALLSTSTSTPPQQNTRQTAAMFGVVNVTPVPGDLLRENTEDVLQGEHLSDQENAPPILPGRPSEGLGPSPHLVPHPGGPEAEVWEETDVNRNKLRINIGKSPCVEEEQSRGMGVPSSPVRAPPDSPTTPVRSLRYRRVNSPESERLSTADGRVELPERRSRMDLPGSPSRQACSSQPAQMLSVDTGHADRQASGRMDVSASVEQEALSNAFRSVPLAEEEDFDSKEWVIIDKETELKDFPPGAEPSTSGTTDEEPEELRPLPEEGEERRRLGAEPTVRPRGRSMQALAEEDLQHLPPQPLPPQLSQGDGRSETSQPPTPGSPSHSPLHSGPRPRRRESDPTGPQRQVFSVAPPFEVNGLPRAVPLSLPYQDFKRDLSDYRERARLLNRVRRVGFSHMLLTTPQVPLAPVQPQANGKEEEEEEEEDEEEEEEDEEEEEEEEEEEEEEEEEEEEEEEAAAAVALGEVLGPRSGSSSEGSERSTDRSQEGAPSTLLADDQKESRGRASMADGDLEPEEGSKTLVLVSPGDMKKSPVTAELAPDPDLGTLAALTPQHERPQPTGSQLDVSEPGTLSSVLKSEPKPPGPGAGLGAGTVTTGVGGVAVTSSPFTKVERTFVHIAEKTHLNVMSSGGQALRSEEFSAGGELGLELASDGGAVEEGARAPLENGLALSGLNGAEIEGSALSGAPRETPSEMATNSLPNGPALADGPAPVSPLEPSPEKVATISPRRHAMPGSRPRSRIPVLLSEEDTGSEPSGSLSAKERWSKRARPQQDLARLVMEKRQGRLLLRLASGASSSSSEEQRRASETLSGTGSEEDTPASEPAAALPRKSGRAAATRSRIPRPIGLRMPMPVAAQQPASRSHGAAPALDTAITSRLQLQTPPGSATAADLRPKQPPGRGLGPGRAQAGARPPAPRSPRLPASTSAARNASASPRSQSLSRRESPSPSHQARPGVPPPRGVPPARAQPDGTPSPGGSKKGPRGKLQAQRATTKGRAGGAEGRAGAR
Summary of the method: as §1

WNK1 = target: T6, WNK1 (Homo sapiens, UniProt Q9H4A3)
T6 construct: purchased Reaction Biology Corp
Summary of the method: as §1

EPHB1 = target: T7, EPHB1 (Homo sapiens, UniProt P54762)
T7 construct: purchased Reaction Biology Corp
T7 sequence (P54762 18-984): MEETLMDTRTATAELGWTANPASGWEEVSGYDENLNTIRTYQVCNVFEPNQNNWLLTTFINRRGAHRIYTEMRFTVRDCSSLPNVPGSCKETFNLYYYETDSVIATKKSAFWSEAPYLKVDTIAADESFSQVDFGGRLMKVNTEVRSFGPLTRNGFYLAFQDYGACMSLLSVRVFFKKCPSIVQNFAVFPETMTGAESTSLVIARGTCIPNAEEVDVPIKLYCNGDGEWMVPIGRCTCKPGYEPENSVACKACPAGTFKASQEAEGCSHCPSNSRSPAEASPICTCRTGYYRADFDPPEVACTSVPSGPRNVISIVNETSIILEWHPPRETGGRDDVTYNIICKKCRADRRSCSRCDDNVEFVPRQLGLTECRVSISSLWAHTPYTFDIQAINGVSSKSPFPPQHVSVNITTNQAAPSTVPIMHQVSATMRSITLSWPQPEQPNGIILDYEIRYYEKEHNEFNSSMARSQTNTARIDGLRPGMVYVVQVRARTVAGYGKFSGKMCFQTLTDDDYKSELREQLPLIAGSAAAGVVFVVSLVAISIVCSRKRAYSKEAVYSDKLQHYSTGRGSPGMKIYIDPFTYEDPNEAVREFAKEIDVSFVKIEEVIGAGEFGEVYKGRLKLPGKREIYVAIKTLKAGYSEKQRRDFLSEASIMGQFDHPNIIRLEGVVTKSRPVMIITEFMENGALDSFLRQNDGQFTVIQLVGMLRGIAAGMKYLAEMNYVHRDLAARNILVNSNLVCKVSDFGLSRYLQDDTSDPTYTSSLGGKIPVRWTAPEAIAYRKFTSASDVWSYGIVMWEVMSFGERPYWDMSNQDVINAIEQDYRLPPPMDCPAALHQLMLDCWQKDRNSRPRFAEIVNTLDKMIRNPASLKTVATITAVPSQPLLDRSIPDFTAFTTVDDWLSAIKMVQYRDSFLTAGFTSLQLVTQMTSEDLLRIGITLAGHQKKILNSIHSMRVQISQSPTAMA
Summary of the method: as §1

CK1a1 = target: T8, CK1a1 (Homo sapiens, UniProt P48729)
T8 construct: purchased Reaction Biology Corp
T8 sequence (P48729 whole entry): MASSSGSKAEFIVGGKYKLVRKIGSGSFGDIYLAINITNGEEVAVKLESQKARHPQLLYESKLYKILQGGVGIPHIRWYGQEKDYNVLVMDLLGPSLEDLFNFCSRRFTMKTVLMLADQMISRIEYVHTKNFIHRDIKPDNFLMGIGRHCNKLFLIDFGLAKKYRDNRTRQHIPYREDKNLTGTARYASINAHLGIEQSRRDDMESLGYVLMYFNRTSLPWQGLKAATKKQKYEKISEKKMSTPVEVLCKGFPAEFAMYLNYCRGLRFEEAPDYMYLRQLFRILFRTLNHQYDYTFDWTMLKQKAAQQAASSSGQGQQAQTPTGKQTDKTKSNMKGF
Summary of the method: as §1

[1] = read-out: % Enzyme Activity (relative to DMSO controls) AVG
[2] = read-out: % Enzyme Activity (relative to DMSO controls) Data 1
[3] = read-out: % Enzyme Activity (relative to DMSO controls) Data 2

T1 sequence (Q15569 whole entry): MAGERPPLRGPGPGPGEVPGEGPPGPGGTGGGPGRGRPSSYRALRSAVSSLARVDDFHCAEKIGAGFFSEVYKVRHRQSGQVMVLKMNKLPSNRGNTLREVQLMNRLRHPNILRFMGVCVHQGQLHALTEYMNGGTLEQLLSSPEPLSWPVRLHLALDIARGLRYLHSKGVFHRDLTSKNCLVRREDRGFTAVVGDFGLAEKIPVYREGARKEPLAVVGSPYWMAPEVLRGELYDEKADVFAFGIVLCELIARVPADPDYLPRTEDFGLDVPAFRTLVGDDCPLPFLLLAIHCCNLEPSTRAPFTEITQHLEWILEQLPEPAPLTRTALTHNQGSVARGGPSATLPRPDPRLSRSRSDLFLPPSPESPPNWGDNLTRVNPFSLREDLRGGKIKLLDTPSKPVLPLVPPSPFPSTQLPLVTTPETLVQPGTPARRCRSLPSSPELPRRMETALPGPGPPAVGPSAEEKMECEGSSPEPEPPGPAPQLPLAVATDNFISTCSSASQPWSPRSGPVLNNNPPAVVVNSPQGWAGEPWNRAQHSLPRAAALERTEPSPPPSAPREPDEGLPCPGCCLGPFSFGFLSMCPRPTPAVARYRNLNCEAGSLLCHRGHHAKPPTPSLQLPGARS

CC(C)(C)C(=O)N1N=CC[C@H]1c1ccccc1 [GSK′963]
remaining activity at 10 µM (TESK1; [1]): 116%
remaining activity at 10 µM (TESK1; [2]): 112%
remaining activity at 10 µM (TESK1; [3]): 120%
remaining activity at 10 µM (TXK; [1]): 96.3%
remaining activity at 10 µM (TXK; [2]): 95.7%
remaining activity at 10 µM (TXK; [3]): 96.8%
remaining activity at 10 µM (NIK/MAP3K14; [1]): 98.2%
remaining activity at 10 µM (NIK/MAP3K14; [2]): 93.4%
remaining activity at 10 µM (NIK/MAP3K14; [3]): 103%
remaining activity at 10 µM (LCK2/ICK; [1]): 101%
remaining activity at 10 µM (LCK2/ICK; [2]): 100%
remaining activity at 10 µM (LCK2/ICK; [3]): 101%
remaining activity at 10 µM (TTBK1; [1]): 110%
remaining activity at 10 µM (TTBK1; [2]): 109%
remaining activity at 10 µM (TTBK1; [3]): 111%
remaining activity at 10 µM (WNK1; [1]): 81.7%
remaining activity at 10 µM (WNK1; [2]): 78.3%
remaining activity at 10 µM (WNK1; [3]): 85.1%
remaining activity at 10 µM (EPHB1; [1]): 99.4%
remaining activity at 10 µM (EPHB1; [2]): 98.8%
remaining activity at 10 µM (EPHB1; [3]): 100%
remaining activity at 10 µM (CK1a1; [1]): 103%
remaining activity at 10 µM (CK1a1; [2]): 102%
remaining activity at 10 µM (CK1a1; [3]): 103%

From article PMC4979471 (Cell Death Discovery, 2015)
